# Test results taken from patent US20250243220A1, “ATR INHIBITORS” (APREA THERAPEUTICS, INC., priority 2022, published 2025).
# How the values were obtained:
# Type in all cases: cell-based
# 22RV1 = assay: IC50 assay by Western blot (APH-treated cells), 22RV1; details: 22RV1 cells; for IC50: Homo sapiens
# Method: (§1) E. Treatment of Cells for IC50 Assay by Western Blot
# (§2) The compound is stored as a 1 mM stock solution prepared in accordance with the Receipt of Compound SOP. The stock solution is diluted in cell media in two separate 1:10 dilution series.
# (§3) 1. Arrange twelve 15-mL centrifuge tubes in a rack in two series and label them in accordance with Dilutions Series 1 and Dilution Series 2 shown in Table 1 and Table 2, respectively.
# (§4) 2. Place 2.5 mL of prewarmed cell media in each of the […]. Place 2.25 mL of prewarmed cell media in the remaining tubes.
# (§5) 3. Add 7.5 μL of 1 mM compound stock solution in the 3 μM tube. Mix well.
# (§6) 4. Add 2.5 μL of 1 mM compound stock solution in the 1 μM tube. Mix well.
# (§7) 5. For each series (separately), remove 250 μL from the leftmost tube and transfer to the next tube to the right. Repeat for each tube until the series is complete.
# (§8) 6. Set aside the 1 μM tube, the 3 μM tube, and the 300 nM tube for discard.
# (§9) 7. The cells to be treated will be in 6-well plates labeled by cell line. Remove the cells from the incubator and label the wells with the dosages to be administered.
# (§10) 8. Arrange the dilution tubes in the rack in a manner that reflects the 6-well plate arrangement so as to avoid confusion when administering the dosage solutions to the appropriate wells.
# (§11) 9. Aspirate the three wells in the top row of the first plate (labeled NT, APH+, and APH+) and replace with 2 mL fresh media (without drug compound).
# (§12) 10. Aspirate the three wells in the bottom row of the first plate and replace each well with 2 mL of solution from the appropriate tube.
# (§13) 11. Repeat step 10 for the next row of wells (top row second plate). and then for the final row of wells (bottom row second plate).
# (§14) 12. Place both plates into the incubator for 30 minutes.
# (§15) 13. After 30 minutes have elapsed, remove the plates from the incubator.
# (§16) 14. Acquire stock solution of APH (5 mM) and add 2 μL of the APH stock solution to the center of each well except the well labeled NT.
# (§17) 15. Swirl the plates carefully and gently to diffuse the APH throughout each well.
# (§18) 16. Place the plates back in the incubator for 4 hours, at which point the cells will be harvested for analysis.
# (§19) 17. Twenty minutes before harvesting (or 3 hours and 40 minutes after administration of APH), turn on a heat block suitable to heat Eppendorf tubes. Set the temperature to 95° C.
# (§20) 18. Set up a number of Eppendorf tubes equal to the number of wells treated (i.e., twelve per two-plate drug administration), and label each tube with cell line, compound administered, dosage level, and date. Leave the tubes open.
# (§21) 19. Add 200 mL DI water to a beaker.
# (§22) 20. After 4 hours, remove treated plates from incubator.
# (§23) 21. Aspirate media from all wells.
# (§24) 22. Wash each well with 2 mL 1×PBS and aspirate.
# (§25) 23. Sterilize vacuum line with 70% ethanol by spraying some into the nozzle while the vacuum is engaged. Shut off vacuum.
# (§26) 24. Add Laemmli buffer to each well. For HCT116 Bcl/xl, OVCAR-3, and 22RV1 cells, add 300 μL per well; for OVCAR-8 and SKOV-3 cells, add 250 μL per well.
# (§27) 25. Scrape the first well thoroughly. Place the scraper into the DI water between uses.
# (§28) 26. Transfer the lysed cell debris mixture to the first tube carefully. The mixture will be viscous. Use a 1000-μL pipettor. Close the tube.
# (§29) 27. Repeat steps 25 and 26 for each well.
# (§30) 28. When all wells have been harvested, place all the tubes into the heat block. Place a weighted, heat-resistant object on top of the tubes to keep them closed.
# (§31) 29. After 5 minutes, remove the tubes from the heat block and turn it off. Vortex each tube for 10 seconds. Be cautious of tubes popping open.
# (§32) 30. Allow the tubes to come to room temperature and proceed to further analysis or store frozen at −20° C.
# [1] = system: HCT Bcl/xl, OVCAR-3, OVCAR-8, SKOV-3, 22RV1 cell lines; assay: Ave. IC50 across cell lines; details: average across cell lines
# OVCAR-3 = assay: IC50 assay by Western blot (APH-treated cells), OVCAR-3; details: OVCAR-3 cells; for IC50: Homo sapiens
# Method: as §1, §2, §3, §4, §5, §6, §7, §8, §9, §10, §11, §12, §13, §14, §15, §16, §17, §18, §19, §20, §21, §22, §23, §24, §25, §26, §27, §28, §29, §30, §31, §32
# HCT116 Bcl/xl = assay: IC50 assay by Western blot (APH-treated cells), HCT116 Bcl/xl; details: for IC50: Homo sapiens, HCT-116
# Method: as §1, §2, §3, §4, §5, §6, §7, §8, §9, §10, §11, §12, §13, §14, §15, §16, §17, §18, §19, §20, §21, §22, §23, §24, §25, §26, §27, §28, §29, §30, §31, §32
# MEC (+APH) = assay: MEC (+APH)
# OVCAR-8 = assay: IC50 assay by Western blot (APH-treated cells), OVCAR-8; details: OVCAR-8 cells; for IC50: Homo sapiens
# Method: as §1, §2, §3, §4, §5, §6, §7, §8, §9, §10, §11, §12, §13, §14, §15, §16, §17, §18, §19, §20, §21, §22, §23, §24, §25, §26, §27, §28, §29, §30, §31, §32
# SKOV-3 = assay: IC50 assay by Western blot (APH-treated cells), SKOV-3; details: SKOV-3 cells; for IC50: Homo sapiens, SK-OV-3
# Method: as §1, §2, §3, §4, §5, §6, §7, §8, §9, §10, §11, §12, §13, §14, §15, §16, §17, §18, §19, §20, §21, §22, §23, §24, §25, §26, §27, §28, §29, §30, §31, §32
Structure (SMILES),IC50 (22RV1) [nM],IC50 [1] [nM],IC50 (OVCAR-3) [nM],IC50 (HCT116 Bcl/xl) [nM],IC50 (OVCAR-8) [nM],IC50 (SKOV-3) [nM],PALD (Percent Activity at Lowest Dose tested) 22RV1 (22RV1),PALD (Percent Activity at Lowest Dose tested) OVCAR-3 (OVCAR-3),PALD (Percent Activity at Lowest Dose tested) HCT Bcl/xl (HCT116 Bcl/xl),minimal effective concentration (MEC (+APH)) [µM],PALD (Percent Activity at Lowest Dose tested) OVCAR-8 (OVCAR-8),PALD (Percent Activity at Lowest Dose tested) SKOV-3 (SKOV-3)
"CNCc1cccc2c1OCCCCCCC(C)(O)CC(C)(C)S(=O)(=O)c1ccc(cc1)-c1cnc(N)c(n1)C(=O)N2 (racemic) [Compound A, 5-amino-22-hydroxy-22,24,24-trimethyl-13-(methylaminomethyl)-25,25-dioxo-15-oxa-25λ^6-thia-4,8,31-triazatetracyclo[24.2.2.1^2,6.0^9,14]hentriaconta-1(28),2(31),3,5,9(14),10,12,26,29-nonaen-7-one]",8.28,3.61,2.19,3.49,1.68,2.39,(73%),(111%),(74%),2e-05,(71%),(88%)
"CNCc1cccc2c1OCCCCCCC(C)(O)CC1(CC1)S(=O)(=O)c1ccc(cc1)-c1cnc(N)c(n1)C(=O)N2 (racemic) [Compound B, 5-amino-22-hydroxy-22-methyl-13-(methylaminomethyl)-25,25-dioxo-spiro[15-oxa-25λ^6-thia-4,8,31-triazatetracyclo[24.2.2.1^2,6.0^9,14]hentriaconta-1(28),2,4,6(31),9(14),10,12,26,29-nonaene-24,1′-cyclopropane]-7-one]",2.99,3.37,2.15,4.63,4.47,2.62,(141%),(121%),(115%),4e-05,(94%),(106%)
"CC1(C)C[C@@](C)(O)CCCCCCOc2c(CN)cccc2NC(=O)c2nc(cnc2N)-c2ccc(cc2)S1(=O)=O (single isomer, unassigned) [Compound C-1]",3.5,2.7,1.02,4.53,3.63,–,(107%),(115%),(72%),1e-05,(83%),–
"CN(C)Cc1cccc2c1OCCCCCCC(C)(O)CC(C)(C)S(=O)(=O)c1ccc(cc1)-c1cnc(N)c(n1)C(=O)N2 (stereo not drawn) [Compound E, 5-amino-13-[(dimethylamino)methyl]-22-hydroxy-22,24,24-trimethyl-25,25-dioxo-15-oxa-25λ^6-thia-4,8,31-triazatetracyclo[24.2.2.1^2,6.0^9,14]hentriaconta-1(28),2,4,6(31),9(14),10,12,26,29-nonaen-7-one]",3.28,–,–,6.5,6.47,–,(72%),–,(91%),8e-05,(139%),–
"CN(C)Cc1cccc2c1OCCCCCCC(C)(O)CC1(CC1)S(=O)(=O)c1ccc(cc1)-c1cnc(N)c(n1)C(=O)N2 (stereo not drawn) [Compound F, 5-amino-13-[(dimethylamino)methyl]-22-hydroxy-22-methyl-25,25-dioxo-spiro[15-oxa-25λ^6-thia-4,8,31-triazatetracyclo[24.2.2.1^2,6.0^9,14]hentriaconta-1(28),2,4,6(31),9(14),10,12,26,29-nonaene-24,1′-cyclopropane]-7-one]",10.8,–,8.23,14.1,31.5,–,(96%),(86%),(104%),0.000156,(81%),–
"CN(C)Cc1cccc2c1OCCCCCCC(O)CC(C)(C)S(=O)(=O)c1ccc(cc1)-c1cnc(N)c(n1)C(=O)N2 (stereo not drawn) [Compound G, 5-amino-13-[(dimethylamino)methyl]-22-hydroxy-24,24-dimethyl-25,25-dioxo-15-oxa-25λ^6-thia-4,8,31-triazatetracyclo[24.2.2.1^2,6.0^9,14]hentriaconta-1(28),2(31),3,5,9(14),10,12,26,29-nonaen-7-one]",5.09,–,4.97,12.5,–,2.64,(104%),(83%),(109%),8e-05,–,(97%)

# Further lines, with some results ahead:
IC50 (22RV1) [nM],IC50 [1] [nM],IC50 (OVCAR-3) [nM],IC50 (HCT116 Bcl/xl) [nM],IC50 (OVCAR-8) [nM],IC50 (SKOV-3) [nM],Structure (SMILES),PALD (Percent Activity at Lowest Dose tested) 22RV1 (22RV1),PALD (Percent Activity at Lowest Dose tested) OVCAR-3 (OVCAR-3),PALD (Percent Activity at Lowest Dose tested) HCT Bcl/xl (HCT116 Bcl/xl),minimal effective concentration (MEC (+APH)) [µM],PALD (Percent Activity at Lowest Dose tested) OVCAR-8 (OVCAR-8),PALD (Percent Activity at Lowest Dose tested) SKOV-3 (SKOV-3)
7.02,–,–,7.77,4.97,–,"CNCc1cccc2c1OCCCCCC[C@H](O)CC(C)(C)S(=O)(=O)c1ccc(cc1)-c1cnc(N)c(n1)C(=O)N2 (single isomer, unassigned) [Compound G-1]",(111%),–,(115%),4e-05,(85%),–
8.57,–,–,7.9,–,4.94,"CNCc1cccc2c1OCCCCCC[C@@H](O)CC(C)(C)S(=O)(=O)c1ccc(cc1)-c1cnc(N)c(n1)C(=O)N2 (single isomer, unassigned) [Compound G-2]",(86%),–,(83%),4e-05,–,(92%)
7.84,–,–,4.46,–,–,"CC1(C)C[C@@H](O)CCCCCCOc2c(CN)cccc2NC(=O)c2nc(cnc2N)-c2ccc(cc2)S1(=O)=O (single isomer, unassigned) [Compound H-1]",(71%),–,(89%),4e-05,–,–
–,–,–,6.43,–,–,"CC1(C)C[C@H](O)CCCCCCOc2c(CN)cccc2NC(=O)c2nc(cnc2N)-c2ccc(cc2)S1(=O)=O (single isomer, unassigned) [Compound H-2]",–,–,(89%),2e-05,–,–
